Test results published in US20250171460A1, “INDUCERS OF KLF2 AND METHODS OF USE THEREOF” (Riparian Pharmaceuticals, Inc., priority 2022, published 2025).

Test system: primary human endothelial cells expressing luciferase under the control of the KLF2 promoter
Assay: KLF2 Induction Cell Based Bioassay (luciferase reporter)
Details: Homo sapiens, Endothelial cell, 24 h, KLF2 promoter luciferase, 24 hours, 11-point concentration response; read-out: Activity Range (EC50)
From the text: In endothelial cell culture media, a stock of the highest working concentration was made at no more than 1% DMSO vehicle. The working stock was then serially diluted 1:2 to make an 11-point concentration response curve. Included in the 96-well plate were 2 reference compounds with known potencies. A DMSO column was included in the 96-well plate at the highest percent vehicle of the working stocks. The 96-well cell culture plate of primary human endothelial cells expressing luciferase under the control of the KLF2 promoter was dosed with 200 μL per well of the dilution series as well as the DMSO control column. The assay plate was incubated at 37° C. for 24 hours. The supernatant was collected at 24 hours.
20 μL of the supernatant was then placed in a 384-well plate with optical duplicates. The corners of the plate received 20 μL of the Gaussia Luciferase Enzyme positive control, as well as 20 μL of the 50 μM Coelenterizine substrate. The plate read is then calibrated using the control, and read using a Molecular Devices SpectraMax iD5, providing luminescence in relative light units (RLU). The plate reader injected 20 μL of the 50 μM Coelenterizine substrate immediately before taking the RLU measurement for each well.
The sample signals were then normalized to the average signal of the DMSO column, as well as to the maximum signal of one of the reference compounds, as shown in the equations below: […]
The EC50 of each compound is then defined as when the concentration response curve passes 0.5.

Row | EC50 [nM] | Structure (SMILES)
1 | 501 to 5000 | COCCN1C(=O)c2oc3cc(C(=O)NC4(C)COC4)ccc3c2OCC1(C)C(=O)NCc1ncccc1OC (stereo not shown) [Example 66]
2 | 51 to 500 | COc1cccc(C#N)c1CNC(=O)C1(C)COc2c(oc3cc(C(=O)NC4CCC4)ccc23)C(=O)N1CC1CC1 (stereo not shown) [Example 67]
3 | 51 to 500 | COc1cccc(F)c1CNC(=O)C1(C)COc2c(oc3cc(C(=O)NC4(C)COC4)ccc23)C(=O)N1[C@H]1C[C@@H](OC)C1 (stereo partly shown) [Example 68]
4 | 51 to 500 | COc1cc(F)ccc1CNC(=O)C1(C)COc2c(oc3cc(C(=O)NC4(C)COC4)ccc23)C(=O)N1[C@H]1C[C@@H](OC)C1 (stereo partly shown) [Example 69]
5 | 51 to 500 | COc1ccc(F)cc1CNC(=O)C1(C)COc2c(oc3cc(C(=O)NC4(C)COC4)ccc23)C(=O)N1[C@H]1C[C@@H](OC)C1 (stereo partly shown) [Example 70]
6 | 51 to 500 | COc1cc(F)ccc1CNC(=O)C1(C)COc2c(oc3cc(C(=O)NC4CCC4)ccc23)C(=O)N1[C@H]1C[C@@H](OC)C1 (stereo partly shown) [Example 71]
7 | 51 to 500 | COc1cc(F)ccc1CNC(=O)C1(C)COc2c(oc3cc(C(=O)NC4CCC4)ccc23)C(=O)N1CC1CC1 (stereo not shown) [Example 72]
8 | 51 to 500 | COc1ccc(F)cc1CNC(=O)C1(C)COc2c(oc3cc(C(=O)NC4CCC4)ccc23)C(=O)N1[C@H]1C[C@@H](OC)C1 (stereo partly shown) [Example 73]
9 | 501 to 5000 | COCCN1C(=O)c2oc3cc(C(=O)NC4(C)COC4)ccc3c2OCC1(C)C(=O)NCc1cc(F)ccc1OC (stereo not shown) [Example 74]
10 | 51 to 500 | COCCN1C(=O)c2oc3cc(C(=O)NC4CCC4)ccc3c2OCC1(C)C(=O)NCc1cc(F)ccc1OC (stereo not shown) [Example 75]
11 | 51 to 500 | COCCN1C(=O)c2oc3cc(C(=O)NC4(C)COC4)ccc3c2OCC1(C)C(=O)NCc1ccc(F)cc1OC (stereo not shown) [Example 76]
12 | 51 to 500 | COCCN1C(=O)c2oc3cc(C(=O)NC4CCC4)ccc3c2OCC1(C)C(=O)NCc1ccc(F)cc1OC (stereo not shown) [Example 77]
13 | 51 to 500 | COc1cccnc1CNC(=O)C1(C)COc2c(oc3cc(C(=O)NC4(C)COC4)ccc23)C(=O)N1[C@H]1C[C@@H](OC)C1 (stereo partly shown) [Example 78]
14 | 51 to 500 | COCCN1C(=O)c2oc3cc(C(=O)NC4(C)COC4)ccc3c2OC[C@]1(C)C(=O)NCc1c(F)cccc1OC [Example 79]
15 | 501 to 5000 | COc1ccc(F)cc1CNC(=O)C1(C)COc2c(oc3cc(C(=O)NC4CCC4)ccc23)C(=O)N1[C@H]1C[C@H](OC)C1 (stereo partly shown) [Example 80]
16 | 51 to 500 | COc1ccc(F)c(F)c1CNC(=O)C1(C)COc2c(oc3cc(C(=O)NC4CCC4)ccc23)C(=O)N1[C@H]1C[C@@H](OC)C1 (stereo partly shown) [Example 82]
17 | 51 to 500 | COc1ccc(F)c(F)c1CNC(=O)C1(C)COc2c(oc3cc(C(=O)NC4(C)COC4)ccc23)C(=O)N1[C@H]1C[C@@H](OC)C1 (stereo partly shown) [Example 83]
18 | ≤ 50 | COc1cccc(Cl)c1CNC(=O)C1(C)COc2c(oc3cc(C(=O)NC4CCC4)ccc23)C(=O)N1[C@H]1C[C@@H](OC)C1 (stereo partly shown) [Example 84]
19 | ≤ 50 | COc1cccc(Cl)c1CNC(=O)C1(C)COc2c(oc3cc(C(=O)NC4(C)COC4)ccc23)C(=O)N1[C@H]1C[C@@H](OC)C1 (stereo partly shown) [Example 85]
20 | ≤ 50 | COc1cccc(Cl)c1CNC(=O)C1(C)COc2c(oc3cc(C(=O)NC4(C)COC4)ccc23)C(=O)N1CC1CC1 (stereo not shown) [Example 86]
21 | ≤ 50 | COc1cccc(Cl)c1CNC(=O)C1(C)COc2c(oc3cc(C(=O)NC4CCC4)ccc23)C(=O)N1CC1CC1 (stereo not shown) [Example 87]
22 | ≤ 50 | COCCN1C(=O)c2oc3cc(C(=O)NC4CCC4)ccc3c2OCC1(C)C(=O)NCc1c(Cl)cccc1OC (stereo not shown) [Example 88]
23 | ≤ 50 | COc1cccc(F)c1CNC(=O)C1(C)COc2c(oc3cc(C(=O)NC4(C)COC4)ccc23)C(=O)N1CC1CC1 (stereo not shown) [Example 89]

Row | EC50 [nM] | Structure (SMILES)
24 | ≤ 50 | COCCN1C(=O)c2oc3cc(C(=O)NC4CCC4)ccc3c2OCC1(C)C(=O)NCc1c(C#N)cccc1OC (stereo not shown) [Example 90]
25 | ≤ 50 | COc1cccc(F)c1CNC(=O)C1(C)COc2c(oc3cc(C(=O)NC4CCC4)ccc23)C(=O)N1[C@H]1C[C@@H](OC)C1 (stereo partly shown) [Example 91]
26 | ≤ 50 | COc1ccc(F)cc1CNC(=O)C1(C)COc2c(oc3cc(C(=O)NC4CCC4)ccc23)C(=O)N1CC1CC1 (stereo not shown) [Example 92]
27 | ≤ 50 | COc1cccc(F)c1CNC(=O)C1(C)COc2c(oc3cc(C(=O)NC4CCC4)ccc23)C(=O)N1CC1CC1 (stereo not shown) [Example 93]
28 | ≤ 50 | COCCN1C(=O)c2oc3cc(C(=O)NC4CCC4)ccc3c2OC[C@]1(C)C(=O)NCc1c(F)cccc1OC [Example 94]
29 | 501 to 5000 | COCCN1C(=O)c2oc3cc(C)ccc3c2OCC1(C)C(=O)NCc1ccccc1OC (stereo not shown) [Example 95, N-(2-methoxybenzyl)-4-(2-methoxyethyl)-3,8-dimethyl-5-oxo-2,3,4,5-tetrahydrobenzofuro[2,3-f][1,4]oxazepine-3-carboxamide]
30 | 501 to 5000 | C=C(C)c1ccc2c3c(oc2c1)C(=O)N(CCOC)C(C)(C(=O)NCc1ccccc1OC)CO3 (stereo not shown) [Example 96]
31 | 501 to 5000 | COCCN1C(=O)c2oc3cc(C4CC4)ccc3c2OCC1(C)C(=O)NCc1ccccc1OC (stereo not shown) [Example 97]
32 | 501 to 5000 | COCCN1C(=O)c2oc3cc(-c4cscn4)ccc3c2OCC1(C)C(=O)NCc1ccccc1OC (stereo not shown) [Example 99]
33 | 51 to 500 | COCCN1C(=O)c2oc3cc(-c4cncs4)ccc3c2OCC1(C)C(=O)NCc1ccccc1OC (stereo not shown) [Example 100]
34 | 51 to 500 | COCCN1C(=O)c2oc3cc(-c4nccs4)ccc3c2OCC1(C)C(=O)NCc1ccccc1OC (stereo not shown) [Example 101]
35 | 51 to 500 | [2H]C([2H])([2H])N(C(=O)CN1C(=O)c2oc3ccc(Cl)cc3c2OC[C@]1(C)C(=O)NCc1c(F)cccc1OC)C([2H])([2H])[2H] [Example 102, (R)-4-(2-(bis(methyl-d3)amino)-2-oxoethyl)-9-chloro-N-(2-fluoro-6-methoxybenzyl)-3-methyl-5-oxo-2,3,4,5-tetrahydrobenzofuro[2,3-f][1,4]oxazepine-3-carboxamide]
36 | 51 to 500 | [2H]C([2H])([2H])N(C(=O)CN1C(=O)c2oc3ccc(Cl)cc3c2OC[C@]1(C)C(=O)NCc1ncccc1OC)C([2H])([2H])[2H] [Example 103]
37 | 51 to 500 | COc1cccnc1CNC(=O)[C@@]1(C)COc2c(oc3ccc(Cl)cc23)C(=O)N1CC(=O)N1CC(O)C1 [Example 104]
38 | 51 to 500 | COc1cccc(F)c1CNC(=O)[C@@]1(C)COc2c(oc3ccc(Cl)cc23)C(=O)N1CC(=O)N1CC(O)C1 [Example 105]
39 | 51 to 500 | [2H]C([2H])([2H])N(C(=O)CN1C(=O)c2oc3ccc(Cl)cc3c2OCC1(C)C(=O)NCc1ncccc1OCC)C([2H])([2H])[2H] (stereo not shown) [Example 109, 4-(2-(bis(methyl-d3)amino)-2-oxoethyl)-9-chloro-N-((3-ethoxypyridin-2-yl)methyl)-3-methyl-5-oxo-2,3,4,5-tetrahydrobenzofuro[2,3-f][1,4]oxazepine-3-carboxamide]
40 | 501 to 5000 | [2H]C([2H])([2H])N(C(=O)CN1C(=O)c2oc3ccc(Cl)cc3c2OCC1(C)C(=O)NCc1ncccc1OC(C)C)C([2H])([2H])[2H] (stereo not shown) [Example 110]
41 | 51 to 500 | COc1cccc(F)c1CNC(=O)C1(C)COc2c(oc3ccc(F)cc23)C(=O)N1CC(=O)N(C)CCO (stereo not shown) [Example 111, 9-fluoro-N-(2-fluoro-6-methoxybenzyl)-4-(2-((2-hydroxyethyl)(methyl)amino)-2-oxoethyl)-3-methyl-5-oxo-2,3,4,5-tetrahydrobenzofuro[2,3-f][1,4]oxazepine-3-carboxamide]
42 | 51 to 500 | COc1cccc(F)c1CNC(=O)C1(C)COc2c(oc3ccc(F)cc23)C(=O)N1CC(=O)N(C)C (stereo not shown) [Example 112, 4-(2-(dimethylamino)-2-oxoethyl)-9-fluoro-N-(2-fluoro-6-methoxybenzyl)-3-methyl-5-oxo-2,3,4,5-tetrahydrobenzofuro[2,3-f][1,4]oxazepine-3-carboxamide]
43 | 51 to 500 | COc1ccccc1CNC(=O)C1(C)COc2c(oc3ccc(F)cc23)C(=O)N1CC(=O)C1CC1 (stereo not shown) [Example 113, 4-(2-cyclopropyl-2-oxoethyl)-9-fluoro-N-(2-methoxybenzyl)-3-methyl-5-oxo-2,3,4,5-tetrahydrobenzofuro[2,3-f][1,4]oxazepine-3-carboxamide]
44 | 51 to 500 | [2H]C([2H])([2H])N(C(=O)CN1C(=O)c2oc3ccc(F)cc3c2OC[C@]1(C)C(=O)NCc1c(F)cccc1OC)C([2H])([2H])[2H] [Example 114, (R)-4-(2-(bis(methyl-d3)amino)-2-oxoethyl)-9-fluoro-N-(2-fluoro-6-methoxybenzyl)-3-methyl-5-oxo-2,3,4,5-tetrahydrobenzofuro[2,3-f][1,4]oxazepine-3-carboxamide]
45 | 51 to 500 | COc1cccnc1CNC(=O)[C@@]1(C)COc2c(oc3ccc(F)cc23)C(=O)N1CC(=O)N1CC(F)C1 [Example 115]
46 | 51 to 500 | COc1cccnc1CNC(=O)[C@@]1(C)COc2c(oc3ccc(F)cc23)C(=O)N1CC(=O)N1CC(F)(F)C1 [Example 116]

Same assay, conditions: Homo sapiens, Endothelial cell, Bioactivity of stereoisomers: R isomer; read-out: Bioactivity Bucket, R

Row | EC50 [nM] | Structure (SMILES)
47 | 51 to 500 | COCCN1C(=O)c2oc3cc(C(=O)NC4(C)COC4)ccc3c2OC[C@]1(C)C(=O)NCc1c(F)cccc1OC [Example 79]
48 | 51 to 500 | [2H]C([2H])([2H])N(C(=O)CN1C(=O)c2oc3ccc(Cl)cc3c2OC[C@]1(C)C(=O)NCc1c(F)cccc1OC)C([2H])([2H])[2H] [Example 102, (R)-4-(2-(bis(methyl-d3)amino)-2-oxoethyl)-9-chloro-N-(2-fluoro-6-methoxybenzyl)-3-methyl-5-oxo-2,3,4,5-tetrahydrobenzofuro[2,3-f][1,4]oxazepine-3-carboxamide]

Same assay, conditions: KLF2 promoter luciferase, 24 hours, 11-point concentration response; read-out: Activity Range (EC50)

Row | EC50 [nM] | Structure (SMILES)
49 | 51 to 500 | COc1cccc(F)c1CNC(=O)C1(C)COc2c(oc3ccc(Cl)cc23)C(=O)N1Cc1ncnn1C (stereo not shown) [Example 108, 9-chloro-N-(2-fluoro-6-methoxybenzyl)-3-methyl-4-((1-methyl-11H-1,2,4-triazol-5-yl)methyl)-5-oxo-2,3,4,5-tetrahydrobenzofuro[2,3-f][1,4]oxazepine-3-carboxamide]
